Experimental data published in patent US11034970B2, “Production of protein from hairy roots of a Brassicaceae plant utilizing rhizobium comprising rol genes” (UNIVERSITE DE PICARDIE JULES VERNE, priority 2015, dated 2021).
“And” between values parts separate entries of the source, which are not always exact repeats. Equal values may be shown once.

Columns and labels:
Format in all cases: cell-based, Brassica rapa
[1] = system: hairy roots of the clone 2M1; experiment: Test 1: quantification by fluorometry of GFP secreted in the culture medium (Petri dishes)
Procedure: (§1) In order to modify the morphology of the hairy roots and prevent the development of the root hairs, roots of the clone 2M1 producing GFP were cultured in B53 liquid medium for two weeks. This culture medium was then removed and replaced with fresh B53 medium containing 2,4-dichlorophenoxyacetic acid (2,4-D), an auxin-type hormone, at 0.5 mg/l.
(§2) For the quantification of 6× His-EGFP, culture medium was diluted to 20× or 40× in a 50 mM tris buffer at pH 7.5. The fluorescence of the solution was measured using the BioRad VersaFluor™ fluorometer (excitation filter 485-495 nm; emission filter 505-515 nm). The calibration of the fluorometer was carried out using the commercially available recombinant 6× His-EGFP (BioVision) at a concentration of 10 mg/l.
After culture of hairy roots of the clone 2M1 in B53 liquid medium for two weeks, this medium was replaced with fresh B53 medium containing 2,4-D auxin at 0.5 mg/l, in order to induce the development of lateral root emergences. The hairy roots of the clone 2M1 were thus cultured in Petri dishes containing 5 ml of B53 medium with 2,4-D added, at 23° C. and under stirring at 56 rpm.
The GFP secreted in the culture medium by the hairy roots having lateral root emergences, was quantified (10 repetitions) one and two weeks after the addition of 2,4-D auxin at 0.5 mg/l (Table 2).
Hairy roots of the clone 2M1 were cultured (9 repetitions) under the same conditions changing the B53 medium with fresh B53 medium but without the addition of auxin after culture for the first two weeks, in order to constitute control batches of hairy roots.

[2] = system: hairy roots of the clone 2M1; experiment: Test 2: GFP secreted in the culture medium, Erlenmeyer flasks, two renewals of medium; conditions: 2,4-D 1 mg/l, first change of medium
Procedure: as §2
The clone 2M1 was inoculated at t0 into 5 Erlenmeyer flasks at a rate of 2 g of fresh roots in 100 ml of B53 medium. After culture at 26° C. with a stirrer at 110 rpm for 15 days, the roots have reached a mass of 24.4 g+/−3.90.
A first change of medium was then carried out in each of the flasks as follows; • in two flasks, the B53 medium was replaced with fresh B53 medium in order to carry out two repetitions for the control hairy roots; • in three flasks, the B53 medium was replaced with B53 medium with 2,4-D added at 1 mg/l in order to carry out three repetitions for inducing the development of lateral root emergences;
The GFP secreted in the culture medium was quantified 7 to 14 days after this first change of medium.
A second change of medium was then carried out in these same flasks, in an identical manner:
in the two flasks of control hairy roots. the B53 medium was replaced with fresh B53 medium; […]

[3] = system: hairy roots of the clone 2M1; experiment: Test 3: GFP concentration in the culture medium after culture for 21 days (Petri dishes); conditions: 2,4-D 1 mg/l
Procedure: as §2
Roots of the clone 2M1 were inoculated in 14 Petri dishes, each containing 5 ml of liquid B53 culture medium. They were cultured at 26° C. under stirring at 110 rpm for 17 days.
The medium was then changed in the Petri dishes as follows: • in seven Petri dishes, the medium was removed and replaced with fresh B53 culture medium with 2,4-D added at 1 mg/l (LRE 1 to 7) in order to induce the development of lateral root emergences in these dishes; • and in the other seven Petri dishes, the medium was removed and replaced with fresh B53 culture medium (Controls 1 to 7).
The roots were maintained at 26° C. under stirring at 110 rpm for 21 days.

[4] = system: hairy roots of the clone LG5; experiment: Human gastric lipase activity in the liquid culture medium (4-methylumbelliferyl oleate substrate); conditions: 2,4-D 1 mg/l
Procedure: For this study, a subculture was carried out in six empty Erlenmeyer flasks, to which 1 g of biomass of the same mass of roots of the clone LG5 and 100 ml of liquid Gamborg B53 medium are added. The roots are cultured at 26° C. and under stirring at 110 rpm for two weeks.
In order to induce the development of lateral root emergences (LRE) in three Erlenmeyer flasks, this liquid medium is replaced with fresh B53 culture medium containing 2,4-dichlorophenoxyacetic acid (2,4-D) at 1 mg/l.
In the other three Erlenmeyer flasks having conventional hairy roots (HR), it is replaced with fresh B53 liquid culture medium, without 2,4-D.
After culture for two weeks at 26° C. with stirring at 110 rpm, a second change of medium was carried out in the flasks in an identical manner, in order to replace the culture medium with a fresh culture medium with +/−2,4-D at 1 mg/l.
The activity of the human gastric lipase is measured directly from the liquid culture media in the 6 flasks (14 days and 28 days after induction). The enzymatic activity is measured at 37° C. using 4-methylumbelliferyl oleate (0.1 mM) as substrate. The fluorescence of the 4-methylumbelliferone (MU), product of the enzyme reaction by the gastric lipase, is measured with a fluorometer (Excitation: 330 nm; Emission: 450 nm). This fluorescence is correlated to the human gastric lipase activity (FIG. 11).

[5] = system: hairy roots of the clone 2M1; experiment: Induction of lateral root emergences on hairy roots, morphology; conditions: 2,4-D 0.5 mg/l in B53 medium, during the following 7 days
Procedure: as §1
In order to characterize these conical structures or “lateral root emergences” developing on the roots after hormonal induction, longitudinal sections (FIG. 3) and cross sections (FIG. 4) were produced in the control hairy roots after culture for 2 weeks in B53 medium and in hairy roots having lateral root emergences after culture for 2 weeks in B53 medium with 2,4-D auxin added.
The tissues were fixed in 4% p-formaldehyde overnight at 4° C., dehydrated in baths of ethanol of increasing concentrations, then enclosed in LR White resin. Sections with a thickness of 0.5 to 1 μm were produced using a Leica RM2265 microtome, stained with toluidine blue and observed using a Nikon Eclipse 90i microscope. The images were obtained using a Nikon Digital Sight DS-5Mc device, in visible light or in fluorescence to locate the GFP.

[6] = lateral root emergences (LRE), 37° C., 3 flasks

O=C(O)COc1ccc(Cl)cc1Cl [2,4-D, 2,4-dichlorophenoxyacetic acid]
GFP in the culture medium versus control hairy roots (Student's test) ([1]; 2,4-D 0.5 mg/l versus medium without 2,4-D): significant difference
GFP in the culture medium, 2 weeks after B53 + 2,4-D, average ([1]; average of 10 Petri dishes (n=10), 2,4-D 0.5 mg/l): 164 ± 10.3 mg/L and 164 mg/L
GFP in the culture medium, 1 week after B53 + 2,4-D, average ([1]; average of 10 Petri dishes, 2,4-D 0.5 mg/l): 52 mg/L
secretion of GFP versus control cultures after treatment for 14 days [2]: doubled
concentration of GFP in the medium after 21 days ([3]; 7 Petri dishes, roots with lateral root emergences): 597 mg/L
concentration of GFP in the medium, times greater than control hairy roots ([3]; after 21 days): 4.3
activity of the human gastric lipase, times greater than conventional hairy roots (HR) ([4]; LRE versus HR): approximately 3
activity of the human gastric lipase in the culture medium at 14 days [4, 6]: 16 ± 0.6 pmol/min
activity of the human gastric lipase in the culture medium at 28 days [4, 6]: 45 ± 0.3 pmol/min
morphology of the hairy roots after hormonal induction [5]: Numerous conical structures called “lateral root emergences” (LRE) then developed on the hairy roots
